{"source": "patent US6197746A", "about": "“Method of using secretin for treating autism” (priority 1999, dated 2001)", "key": {"[1]": {"test_system": "serotonin levels; rubella titers", "assay": "Blood tests after secretin infusion (Example 1)", "format": "in vivo, human", "experimental": "(§1) Biomedical changes were also measured in the patient."}, "symptoms of autism [2]": {"test_system": "symptoms of autism", "assay": "Symptoms and behaviour of a child with symptoms of autism after secretin infusion (Example 1, Table I)", "format": "in vivo, human", "experimental": "The present invention will be better understood from the following examples which are given by way of illustration and not by way of limitation. The patient, the same in both examples, is a child with symptoms of autism.\n(§2) When the patient was […], the secretin was administered by way of an infusion as part of an upper gastrointestinal endoscopy. The secretin was used in this diagnostic procedure at the request of the patient's parents, one of which is an inventor of the present invention. The secretin used in this procedure is known as Secretin-Ferring available from Ferring Laboratories, Inc., Suffern, N.Y. (See Appendix A). The secretin was dissolved in a […] solution of sodium chloride and administered in a dosage of 2 clinical units (CU) per kilogram (kg) body weight by intravenous injection over one minute. (I.E. 30 IU IV for approximately 15 kilograms of body weight.)\n(§3) The diagnostic tests performed on the patient during this procedure also indicated gastric inflammation. […] The following Table I summarizes the improvements observed in the patient within 3 weeks after the infusion of secretin."}, "symptoms of autism [3]": {"test_system": "symptoms of autism", "assay": "Daily transdermal secretin with DMSO in a child with symptoms of autism (Example 2)", "format": "in vivo, human", "experimental": "At the time of this treatment, the patient was […]. Secretin was administered transdermally using pharmaceutical grade dimethyl sulfoxide (DMSO) (generally 99.9% pure) available from Clinic Service Co., Box 2512, Hemet Calif. 92543. The secretin (Secretin-Ferring) was administered daily in a dosage of about 75 CU over a five day period (i.e., about 15 CU daily) For each treatment, about 4 drops of DMSO were placed onto the skin of the patient, about 15 CU of the crystalline secretin was placed onto the DMSO, and the composition was rubbed into the skin."}, "pancreas": {"test_system": "pancreas", "assay": "Pancreatic juice release after intravenous secretin during upper gastrointestinal endoscopy (Example 1)", "format": "in vivo, human", "conditions": "immediately after 2 CU/kg i.v. over one minute; usual rate 1-2 ml/min", "experimental": "as §2, §3"}, "abnormal opioid peptides": {"test_system": "abnormal opioid peptides", "conditions": "after the secretin infusion; autistic children that responded to casein free and gluten free diet; cited from earlier work"}, "brain perfusion": {"test_system": "brain perfusion", "assay": "SPECT scan of the brain after secretin infusion (Example 1)", "format": "in vivo, human", "experimental": "Further, the patient's secretin cells prior to receiving treatment, measured at a level of 9, are far below the normal limit in the range of 20-70.\nas §1"}, "[4]": {"conditions": "within weeks after the treatment"}}, "note": "Entries after “also recorded” stand apart in the source; their conditions may differ.", "data": [{"substance": "secretin", "values": [{"measurement": "measles, mumps and rubella antibodies", "setting": "[1]; after the secretin administration in Example 1", "result": "reduction"}, {"measurement": "rubella titers", "setting": "[1]; after the treatment, dropped from 5.8", "result": 2.3}, {"measurement": "serotonin levels", "setting": "[1]; blood, after the treatment", "result": "rise and increase"}, {"measurement": "rate of the patient's progress", "setting": "symptoms of autism [2]; at about 5 weeks after first infusion", "result": "appeared to decrease"}, {"measurement": "results of second and third infusions", "setting": "symptoms of autism [2]; second about 9 months after first, third about three months after second", "result": "achieved the same results"}, {"measurement": "limited diet preferences", "setting": "symptoms of autism [2]; within 3 weeks after infusion", "result": "No Change"}, {"measurement": "water consumption", "setting": "symptoms of autism [2]; within 3 weeks after infusion", "result": "approximately 50 cups per day"}, {"measurement": "bowel movements", "setting": "symptoms of autism [2]; within 3 weeks after infusion, before: abnormal", "result": "Normal bowel movements"}, {"measurement": "excessive water consumption", "setting": "symptoms of autism [2]; within 3 weeks after infusion, before: approximately 50 cups per day", "result": "no change"}, {"measurement": "potty training", "setting": "symptoms of autism [2]; within 3 weeks after infusion, before: diapers only", "result": "Completely potty trained"}, {"measurement": "imitation of commands", "setting": "symptoms of autism [2]; within 3 weeks after infusion, before: did not imitate", "result": "Will imitate almost any multi-step"}, {"measurement": "\"spinning\" episodes", "setting": "symptoms of autism [2]; within 3 weeks after infusion, before: infrequent (1-2 times/week)", "result": "No spinning episodes"}, {"measurement": "eye contact", "setting": "symptoms of autism [2]; within 3 weeks after infusion, before: minimal eye contact", "result": "75 % of the time"}, {"measurement": "connections made between language and objects", "setting": "symptoms of autism [2]; within 3 weeks after infusion, before: no apparent connections", "result": "Many connections made between new"}, {"measurement": "flash cards", "setting": "symptoms of autism [2]; within 3 weeks after infusion, before: no flash cards", "result": "40-50 flash cards"}, {"measurement": "focus on requested tasks", "setting": "symptoms of autism [2]; within 3 weeks after infusion, before: no focus", "result": "Will sit and watch carefully"}, {"measurement": "interest in drawing", "setting": "symptoms of autism [2]; within 3 weeks after infusion, before: no interest", "result": "Wants to draw constantly"}, {"measurement": "response to request for gestures", "setting": "symptoms of autism [2]; within 3 weeks after infusion, before: no response", "result": "Responds to all kinds of things"}, {"measurement": "sentences", "setting": "symptoms of autism [2]; within 3 weeks after infusion, before: no sentences", "result": "Short sentences"}, {"measurement": "words", "setting": "symptoms of autism [2]; within 3 weeks after infusion, before: two words", "result": "100's of words"}, {"measurement": "sleeping problems", "setting": "symptoms of autism [2]; within 3 weeks after infusion, before: up numerous times each night", "result": "Has slept through almost every night"}, {"measurement": "interaction with videos", "setting": "symptoms of autism [2]; within 3 weeks after infusion, before: watch videos", "result": "gets \"involved\" interactively"}, {"measurement": "chronic abnormal bowel movements", "setting": "symptoms of autism [2]; within days after the administration, no change of diet", "result": "became normal"}, {"measurement": "eye contact", "setting": "symptoms of autism [2]; [4]", "result": "able to make normal eye contact"}, {"measurement": "language", "setting": "symptoms of autism [2]; [4]", "result": "language appeared for the first time in two years"}, {"measurement": "other behavioral and developmental problems", "setting": "symptoms of autism [2]; [4]", "result": "improved remarkably"}, {"measurement": "autistic behavioral symptoms when the daily dose is stopped", "setting": "symptoms of autism [3]; transdermal daily dose stopped", "result": "autistic behavioral symptoms return"}, {"measurement": "language", "setting": "symptoms of autism [3]; transdermal daily, within a period of about 6 months", "result": "progressed to spontaneous and conversational language"}, {"measurement": "amount of pancreatic juice being released", "setting": "pancreas", "result": "approximately 10 ml/min"}, {"measurement": "abnormal opioid peptides", "setting": "abnormal opioid peptides", "result": "disappeared"}, {"measurement": "perfusion of the right posterior parietal and right temporal lobes (blood flow in the brain)", "setting": "brain perfusion", "result": "improved; also recorded: increased"}]}]}
